# From a melting point compilation (Tetko et al.; mined from patent text by program, amines drawn as free bases though some values may be those of a salt)
row,melting point,SMILES
1,125 to 127 °C,CN(N)c1cnn(-c2cccc(C(F)(F)F)c2)c(=O)c1
2,106 to 108 °C,CCCc1c(OCCCCCCc2ccc(C(C)(C)C)c(OC)c2OC)ccc(C(=O)OCc2ccccc2)c1O
3,210 °C,COc1ccc(-n2c(CC(=O)O)c(C(=O)O)c3cc(Oc4cccc(C(F)(F)F)c4)ccc32)cc1
4,245 to 246 °C,O=C(NCCc1ccccc1)Nc1ccc2ncc(Br)cc2n1
5,210 °C,CC1Cc2cc(S(=O)(=O)N3CCN(c4cccc(Cl)c4)CC3)ccc2N1C(=O)CCC(=O)O (centres undefined)
6,178 to 180 °C,O=C1CNC(c2ccc(Cl)cc2)=NN1CC(F)(F)F
7,151 to 153 °C,Cc1cc2c(C)cc(-c3ccccc3Cl)nc2nc1-c1ccccc1
8,126 to 133 °C,CNS(=O)(=O)Cc1ccc2[nH]cc(CC(=O)O)c2c1
9,202 to 205 °C,O=C(Nc1ccc(Br)c(C(F)(F)F)c1)c1cccnc1NCn1ccccc1=O
10,202 to 204 °C,O=c1c2c(CCCc3ccccc3)n[nH]c2c2cccnc2n1-c1ccccc1
11,305 °C,CC(=O)Nc1ccc(Oc2c([N+](=O)[O-])cc(C(=O)O)cc2S(N)(=O)=O)cc1
12,177 to 179 °C,O=S(=O)(c1ccccc1)n1cc(I)c2c(OCc3ccccc3)ccnc21
13,143 to 144 °C,O=C(N[C@@H]1CC(=O)N(Cc2ccccc2)C1=O)OCc1ccccc1
14,150 °C,CN(C)CCC(=O)OC1c2ccccc2C(=O)N1c1ccc2ccc(Cl)nc2n1 (centres undefined)
15,163 to 164 °C,CC(C)(C)c1cc(OCc2cccc(-c3nnn[nH]3)c2)cc(C(C)(C)C)c1O
16,170 to 171 °C,CS(=O)(=O)c1ccc(-c2nn(CCc3ccccc3)cc2-c2ccc(F)cc2)cc1
17,215 to 217 °C,CSc1sc(C(=O)O)c2c1-c1sc(-c3ccccc3)cc1CC2
18,223 to 224 °C,COc1ccc(Nc2nnc(Cc3ccncc3)c3ccccc23)cc1
19,101 to 102 °C,COc1ccc(CS[C@@H]2C[C@@H](C(=O)N(C)OC)N(S(=O)(=O)c3ccc4ccccc4c3)C2)cc1

row,melting point,SMILES
1,100 °C,CCOC(=O)c1ccc(-n2ccnc2)cc1
2,174 to 175 °C,COc1ccc2c(c1)CCCC2(CO)NC(=O)c1c(F)cccc1F (centres undefined)
3,199 to 204 °C,CN(C)c1nnc(-c2ccc(S(C)=O)cc2)c(-c2ccc(S(C)=O)cc2)n1 (centres undefined)
4,127 °C,Cc1cc(C)cc(NC(=N)Nc2ccccc2C(F)(F)F)c1
5,63.5 to 64 °C,NC(c1ccccc1)C12CC(CN1Cc1ccccc1)C2 (centres undefined)
6,167 to 168 °C,Cc1cc2c3c(ccn3-c3ccccc3C(N3CCN(C)CC3)=N2)c1
7,110 to 112 °C,CCC(COC(=O)c1ccc(N)c(Cl)c1OC)(c1cccs1)N(C)C (centres undefined)
8,202 °C,N#Cc1c(N)nc2ccc(N3CCN(Cc4ccccc4)CC3)cc2c1N=Cc1ccccc1
9,156 to 160 °C,CC(C)CNC(=O)C=CC=Cc1ccc2c(c1)OCO2
10,170 to 171 °C,CCC(C)c1ccccc1Sc1c(O)cc(-c2ccccc2)oc1=O (centres undefined)
11,222 °C,Cc1cc2c(cc1C)C(=O)c1c(N)cccc1C2=O
12,126 to 128 °C,CN1CCC(c2c[nH]c3ccc(NC(=O)c4ccncc4)nc23)CC1
13,172 °C,OCC1OC(n2cnc3c(NCc4cccc(I)c4)ncnc32)C(O)C1O (centres undefined)
14,165 to 166 °C,O=c1c(O)c(-c2ccoc2)oc2ccccc12
15,190 to 192 °C,Nc1cc(-n2cccc2)ccc1Nc1cccc(-c2cncnc2)c1
16,183 to 184 °C,CCCc1c(O)c(O)c(C(=O)O)c2cc(Cc3ccccc3)c(C)cc12
17,56 to 62 °C,CCOC(=O)C=C1c2ccccc2CC(=O)c2ccccc21
18,59 to 62 °C,Nc1cccnc1-c1ccccc1
19,87 to 88 °C,COc1cc2ccc(C=O)cc2cc1OC

row,melting point,SMILES
1,63 to 64 °C,CCOC(=O)c1cc2c(F)ccc(Cl)c2s1
2,234 to 236 °C,O=C(Nc1cccc2ncccc12)N1CCN2C(=O)OC(c3ccccc3)(c3ccccc3)C2C1 (centres undefined)
3,121 to 123 °C,CC(C)(COc1ccc(O)c(C(N)=O)c1)NCC(O)c1ccccc1 (centres undefined)
4,134 to 137 °C,COC(=O)c1ccc(Cl)cc1NC(=O)CSc1ccc([N+](=O)[O-])cc1
5,114 to 117 °C,O=C(O)C1CCN(c2ncc(NS(=O)(=O)c3ccccc3Br)c(NCc3ccccc3)n2)CC1
6,240 to 241 °C,Cc1c(NC(=O)c2cc3c(s2)CCCC3)cccc1-c1cn(C)c(=O)c(Br)n1
7,282 to 284 °C,Nc1c([N+](=O)[O-])sc2ccc(Br)cc12
8,224 to 226 °C,O=C(Nc1ccc2[nH]c(=O)sc2c1)C(=O)N1CCC(Cc2ccc(F)cc2)CC1
9,206 to 210 °C,O=Cc1cn(C2CCc3ccccc3C2)c(=S)[nH]1 (centres undefined)
10,241 to 242 °C,Cc1ccc2[nH]c(=O)cc(CCN3CCN(c4cccc5ccccc45)CC3)c2c1
11,87 to 88 °C,COC(=O)CCCCCSc1ccc(-c2ccc(Cl)cc2)cc1
12,220 to 222 °C,CCCCn1c(=O)c2nc(C(=O)O)cn2c2ccccc21
13,128 to 130 °C,CCOC(=O)c1cc(O)c(-c2ccccc2)c([N+](=O)[O-])c1
14,78 to 81 °C,BrCc1ccc(-c2ccc3c(c2)OCO3)cc1
15,> 300 °C,N#CC(=NNc1ccc(C2=NNC(=O)CC2)cc1)C(N)=C(C#N)C#N
16,175 to 176 °C,COc1ccc(/C(C)=C/c2ccc(C(=O)O)cc2)cc1C1(C)CCCCC1
17,175 to 176 °C,Cc1cc(Cl)ccc1OCC(=O)N1Cc2ccc(C(=O)c3ccc(Cl)cc3)n2Cc2ccccc21
18,179 to 180 °C,CC1(C)CCC(Cc2ccc(Cl)cc2)C1(O)Cn1ncnc1S (centres undefined)
19,152 to 153 °C,Oc1c(C(=Nc2ccccc2)Nc2ccccc2)sc2ccccc12

# The next lines start with the compound.
row,SMILES,melting point
1,NS(=O)(=O)c1cccc(C2(O)CCCC2)c1,155 °C
2,CCCN(CCC)C1Cc2cccc3nc(N)n(c23)C1 (centres undefined),160 to 170 °C
3,Cc1nc2c(ncn2COCCO)c(=S)[nH]1,190 to 193 °C
4,COC(=O)c1cc(Br)cc(I)c1,55 to 57 °C
5,COC(=O)C1CCCCCCCSC[C@@H](C(=O)OC)NC1=O (some centres undefined),156 to 164 °C
6,O=C(NCCNCc1cc2ccc(O)cc2o1)C12CC3CC(CC(C3)C1)C2,136 to 139 °C
7,CS(=O)c1ccc2nc3sc(C(=O)O)cn3c(=O)c2c1 (centres undefined),243 to 244 °C
8,CNC(=S)N1CCc2c(ncn2C)C1,238 °C
9,Clc1nc(C(Cl)Cl)c(Cl)s1,42 to 44 °C
10,COCCN1CCN(C)c2cc(Nc3ncc(Cl)c(N[C@@H]4CCCC[C@H]4NS(C)(=O)=O)n3)c(OC)cc2C1,89 °C
11,CC(O)COc1cccc([N+](=O)[O-])c1C#N (centres undefined),121 to 124 °C
12,CC1CCc2c(N3CCCCC3)c(F)cc3c(=O)c(C(=O)O)cn1c23 (centres undefined),258 to 261 °C
13,CC(C)(C)NC(CCOc1cccc2c1CC(=O)N2)OC(=O)Cc1ccccc1 (centres undefined),112 to 115 °C
14,CCCCCCCCCCCCCCCCCCc1nc2ncccc2o1,84 to 85 °C
15,NCC1CCc2[nH]c3cc(Cl)c(F)cc3c2C1 (centres undefined),180 to 181 °C
16,CCOC(=O)c1c(N)c2cccnc2n(C)c1=O,203 to 206 °C
17,O=C1C(=O)c2ccccc2C2=C1SCC1(CCN(C3CCCCC3)CC1)O2,195 to 196 °C
18,O=Cc1cc(Cl)c2c(c1)CCCO2,51 °C
19,CCOC(=O)CC(=O)Sc1cc(Cl)c(Cl)cc1Cl,41 to 43 °C
20,CC(C)Oc1nn(CCO)cc1C(=O)NCc1ccc(Cl)cc1Cl,122 to 123 °C
21,CCC(O)Cn1c(Cl)nc2ccccc21 (centres undefined),126 °C
22,CCC1(CO)CCCN2CCc3c([nH]c4ccccc34)C21 (centres undefined),230 to 233 °C
23,CCc1c(C#N)oc(=O)n1S(=O)(=O)c1c(C)noc1C,117 to 122 °C
24,CC(=O)NC1CCCc2sc(C(C)=O)cc21 (centres undefined),168 to 172 °C

row,SMILES,melting point
1,NC(=O)c1ccc(OC(F)(F)F)c(Cl)c1,98 °C
2,N#Cc1ccc(N2C(=O)N(CC#CCO)C(CF)(CF)C2=O)cc1C(F)(F)F,131 to 132 °C
3,O=c1[nH][nH]c(=O)n1-c1cc(Cl)cc(Cl)c1,260 °C
4,CC(=O)NC[C@H]1CN(c2ccc(N3CCN(CCN4CCOCC4)CC3)c(F)c2)C(=O)O1,150 to 152 °C
5,CC(C)c1c(C(=O)c2cccnc2)c2ccccc2n1C,114 °C
6,CC12C=CC(=O)C=C1C(N=[N+]=[N-])CC1C2CCC2(C)C(=O)CCC12 (centres undefined),168 to 170 °C
7,CCC(=O)NCC1CCC(Nc2nc3c(s2)CCOc2ccccc2-3)CC1 (centres undefined),56 to 60 °C
8,C=Cc1c(N)nc(-c2ccc(Cl)c(OC)c2F)nc1C(=O)OC,145 to 147 °C
9,CCOP(=S)(OCC)OC(=O)/C(=N\OC(C)=O)c1csc(N)n1,128 to 130 °C
10,CN(C)C(=O)CCO[C@H]1CC[C@H](N(C)S(=O)(=O)c2ccc(C(F)(F)F)cc2)CC1,88 °C
11,CCCc1c(OCCCOc2c(C(C)=O)ccc(OCC(=O)O)c2CCC)ccc(C(C)=O)c1O,124 to 125 °C
12,CCCc1c(OCCCO)ccc(C(C)=O)c1O,57 to 59 °C
13,COC(=O)c1[nH]c(C)c(C)c1OCC1CO1 (centres undefined),85 to 87 °C
14,COC(=O)C1=C(C)NC(C)=C(c2nc(C)no2)C1c1cccc([N+](=O)[O-])c1 (centres undefined),221 to 222 °C
15,CC(C)C(=O)Nc1nc2c(ncn2C2OC(CO)C(O)C2OC2CCCO2)c(=O)[nH]1 (centres undefined),178 to 180 °C
16,CCCc1cn(C)c2c(=O)[nH]c(-c3cc(S(=O)(=O)N4CCN(CCOC(C)=O)CC4)ccc3OCC)nc12,192 °C
17,CCOC(=O)c1cnc2c3cc(NC(=O)C(CC)CC)ccc3ncn2c1=O,220 to 222 °C
18,COC(=O)N1CCC(=O)C(C2(NO)OCCO2)CC1 (centres undefined),152 to 154 °C
19,COc1ccc(N2CCN(c3c(C)c(C)c4c(c3C)C(=O)C(C)(C)O4)CC2)cc1OC,153 to 154 °C
20,C=Cn1cc(C(=O)O)c(=O)c2cc(F)c(O)nc21,256 to 259 °C
21,CCOc1ccccc1Nc1ncc(C(=O)O)c(=O)[nH]1,226 to 228 °C
22,CC(C)n1nc(Cl)cc1O,138 to 140 °C
23,CCCCOC(=O)c1ccc(N2CCN(CCCS(=O)(=O)O)CC2)cc1,232 to 234 °C
